From PubChem BioAssay (NCI)
In brackets after ≈: the same amount, converted by molar mass.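 Dose response: 5 concentrations. Exposure: 48 h. Format: 96-well plates. Endpoint: linear interpolation; highest concentration if not reached. GI50 is the concentration that inhibits growth by half. TGI marks complete inhibition of growth.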 Residues, ends and D or L forms follow the SMILES beside them. *: point of attachment. Boc = CC(C)(C)OC(=O)*

How the values were obtained:
Test in all cases: NCI-60 cell line screen, 48 h; in the data active means GI50 below about 0.43 µM; inactive means the rest
[1] = test system: SK-MEL-2 melanoma
[2] = test system: SN12C renal
[3] = test system: HOP-92 NSCLC
[4] = test system: LOX IMVI melanoma
[5] = test system: UO-31 renal
[6] = test system: NCI/ADR-RES ovarian
[7] = test system: SF-295 CNS
[8] = test system: ACHN renal
[9] = test system: SW-620 colon
[10] = test system: IGROV1 ovarian
[11] = test system: OVCAR-4 ovarian
[12] = test system: OVCAR-8 ovarian
[13] = test system: HT29 colon
[14] = test system: A498 renal
[15] = test system: UACC-62 melanoma
[16] = test system: SK-MEL-28 melanoma
[17] = test system: SNB-19 CNS
[18] = test system: U251 CNS
[19] = test system: A549 NSCLC
[20] = test system: DU-145 prostate
[21] = test system: K-562 leukemia
[22] = test system: OVCAR-5 ovarian
[23] = test system: SR leukemia
[24] = test system: EKVX NSCLC
[25] = test system: HS 578T breast
[26] = test system: SNB-75 CNS
[27] = test system: SK-MEL-5 melanoma
[28] = test system: NCI-H23 lung
[29] = test system: OVCAR-3 ovarian
[30] = test system: COLO 205 colon
[31] = test system: M14 melanoma
[32] = test system: MOLT-4 leukemia
[33] = test system: MDA-N
[34] = test system: CCRF-CEM leukemia
[35] = test system: NCI-H522 lung
[36] = test system: MCF7 breast
[37] = test system: HOP-62 NSCLC
[38] = test system: SF-268 CNS
[39] = test system: TK-10 renal
[40] = test system: KM12 colon
[41] = test system: RPMI-8226 leukemia
[42] = test system: MDA-MB-435
[43] = test system: MALME-3M melanoma
[44] = test system: NCI-H226 lung
[45] = test system: SK-OV-3 ovarian
[46] = test system: MDA-MB-231 breast
[47] = test system: HCT-116 colon
[48] = test system: HCT-15 colon
[49] = test system: 786-0 renal
[50] = test system: PC-3 prostate
[51] = test system: CAKI-1 renal
[52] = test system: UACC-257 melanoma
[53] = test system: NCI-H460 lung
[54] = test system: BT-549 breast
[55] = test system: HL-60(TB) leukemia
[56] = test system: RXF 393 renal
[57] = test system: HCC-2998 colon
[58] = test system: SF-539 CNS

C/C1=C\[C@H](C)C[C@H](C)OC(=O)C[C@H](c2ccc(O)cc2)NC(=O)[C@H](Cc2ccc(O)c(I)c2)N(C)C(=O)[C@H](C)NC(=O)[C@@H](C)C1
0.245 µM: TGI [25]
16.9 µM: TGI [45]
3.06 µM: TGI [43]
22.9 µM: TGI [2]
18.8 µM: TGI [6]
3.45 µM: TGI [12]
0.153 µM: TGI [38]
6.84 µM: TGI [24]
0.118 µM: TGI [3]
13.8 µM: TGI [33]
0.0948 µM: TGI [14]
> 25 µM: TGI [4] | TGI [7] | TGI [8] | TGI [9] | TGI [10] | TGI [13] | TGI [16] | TGI [17] | TGI [19] | TGI [20] | TGI [21] | TGI [22] | TGI [23] | TGI [28] | TGI [29] | TGI [30] | TGI [31] | TGI [32] | TGI [34] | TGI [35] | TGI [36] | TGI [37] | TGI [39] | TGI [40] | TGI [41] | TGI [44] | TGI [48] | TGI [49] | TGI [50]
11.1 µM: TGI [27]
8.77 µM: TGI [15]
10.3 µM: TGI [26]
0.433 µM: TGI [46]
0.0186 µM: TGI [11]
6.78 µM: TGI [1]
5.18 µM: TGI [42]
6.9 µM: TGI [18]
18.6 µM: TGI [47]
0.185 µM: TGI [5]

Cc1cc(C)c(S(=O)(=O)N2CCN(S(=O)(=O)c3c(C)cc(C)cc3C)OCCCCCO2)c(C)c1
> 100 µM: TGI [1] | TGI [2] | TGI [3] | TGI [4] | TGI [5] | TGI [6] | TGI [7] | TGI [51] | TGI [8] | TGI [9] | TGI [10] | TGI [52] | TGI [11] | TGI [12] | TGI [13] | TGI [14] | TGI [15] | TGI [16] | TGI [17] | TGI [18] | TGI [19] | TGI [20] | TGI [21] | TGI [22] | TGI [53] | TGI [24] | TGI [25] | TGI [27] | TGI [28] | TGI [54] | TGI [29] | TGI [30] | TGI [31] | TGI [32] | TGI [33] | TGI [34] | TGI [35] | TGI [36] | TGI [37] | TGI [38] | TGI [39] | TGI [40] | TGI [42] | TGI [43] | TGI [55] | TGI [44] | TGI [45] | TGI [47] | TGI [48] | TGI [49] | TGI [50]

CC(C)(C)OC(=O)C1C(=O)NC(=O)CC1CC(OCc1ccccc1)C(COCc1ccccc1)OCc1ccccc1 (centres undefined)
66.6 µM: TGI [25]
70.4 µM: TGI [8]
25 µM: TGI [23]
82.8 µM: TGI [6]
8.95 µM: TGI [56]
45.7 µM: TGI [28]
25.5 µM: TGI [4]
20.7 µM: TGI [42]
39.8 µM: TGI [58]
13.1 µM: TGI [32]
50.4 µM: TGI [57]
39.1 µM: TGI [48]
14.3 µM: TGI [13]
4.34 µM: TGI [55]
79.1 µM: TGI [33]
15.8 µM: TGI [41]
24.8 µM: TGI [18]
> 100 µM: TGI [2] | TGI [7] | TGI [9] | TGI [10] | TGI [11] | TGI [12] | TGI [14] | TGI [16] | TGI [17] | TGI [19] | TGI [21] | TGI [53] | TGI [24] | TGI [31] | TGI [34] | TGI [38] | TGI [39] | TGI [47] | TGI [49]
37.7 µM: TGI [50]
27.5 µM: TGI [27]
6.02 µM: TGI [5]
11.5 µM: TGI [43]
93.3 µM: TGI [44]
32.8 µM: TGI [54]
80.6 µM: TGI [20]
53.4 µM: TGI [52]
46.2 µM: TGI [3]

COC(=O)CNC(=O)C(Cc1ccccc1)NC(=O)C(Cc1ccccc1)NC(=O)OC(C)(C)C (stereo not drawn) (Boc-Phe-Phe-Gly-OMe; configuration not given here)
69.2 µg/mL: TGI [54]
65.9 µg/mL: TGI [31]
53.3 µg/mL: TGI [47]
41 µg/mL: TGI [58]
28.9 µg/mL: TGI [15]
42.9 µg/mL: TGI [29]
55 µg/mL: TGI [43]
40.2 µg/mL: TGI [57]
38.8 µg/mL: TGI [32]
41.2 µg/mL: TGI [21]
74.5 µg/mL: TGI [40]
94.7 µg/mL: TGI [18]
49 µg/mL: TGI [41]
48.9 µg/mL: TGI [34]
inactive: GI50 [1] 41.2 µg/mL (≈ 85.2 µM) | GI50 [2] 31.3 µg/mL (≈ 64.6 µM) | GI50 [3] 24.9 µg/mL (≈ 51.5 µM) | GI50 [4] 20.8 µg/mL (≈ 43 µM) | GI50 [7] 51.1 µg/mL (≈ 106 µM) | GI50 [9] 49.1 µg/mL (≈ 102 µM) | GI50 [10] 41.6 µg/mL (≈ 86 µM) | GI50 [52] 32.4 µg/mL (≈ 67 µM) | GI50 [12] 25.7 µg/mL (≈ 53.1 µM) | GI50 [15] 15.6 µg/mL (≈ 32.2 µM) | GI50 [57] 18.9 µg/mL (≈ 39 µM) | GI50 [16] 18.7 µg/mL (≈ 38.7 µM) | GI50 [18] 32.4 µg/mL (≈ 67 µM) | GI50 [19] 83.3 µg/mL (≈ 172 µM) | GI50 [20] 27.7 µg/mL (≈ 57.3 µM) | GI50 [21] 20.7 µg/mL (≈ 42.8 µM) | GI50 [53] 33.7 µg/mL (≈ 69.6 µM) | GI50 [23] 21.7 µg/mL (≈ 44.8 µM) | GI50 [24] 37.1 µg/mL (≈ 76.6 µM) | GI50 [25] 32.8 µg/mL (≈ 67.8 µM) | GI50 [26] 30.1 µg/mL (≈ 62.2 µM) | GI50 [28] 35.7 µg/mL (≈ 73.8 µM) | GI50 [54] 27.8 µg/mL (≈ 57.5 µM) | GI50 [29] 20 µg/mL (≈ 41.4 µM) | GI50 [30] 13.5 µg/mL (≈ 27.9 µM) | GI50 [31] 27.9 µg/mL (≈ 57.6 µM) | GI50 [32] 18.4 µg/mL (≈ 38.1 µM) | GI50 [33] 32.9 µg/mL (≈ 68.1 µM) | GI50 [34] 21.1 µg/mL (≈ 43.6 µM) | GI50 [35] 2.35 µg/mL (≈ 4.86 µM) | GI50 [36] 34.8 µg/mL (≈ 72 µM) | GI50 [38] 78.4 µg/mL (≈ 162 µM) | GI50 [39] 37.6 µg/mL (≈ 77.8 µM) | GI50 [40] 28 µg/mL (≈ 57.8 µM) | GI50 [41] 20.9 µg/mL (≈ 43.2 µM) | GI50 [42] 42.8 µg/mL (≈ 88.5 µM) | GI50 [43] 22.3 µg/mL (≈ 46.1 µM) | GI50 [55] 26.5 µg/mL (≈ 54.7 µM) | GI50 [45] 59.6 µg/mL (≈ 123 µM) | GI50 [58] 21.4 µg/mL (≈ 44.3 µM) | GI50 [46] 48.5 µg/mL (≈ 100 µM) | GI50 [47] 22.5 µg/mL (≈ 46.5 µM) | GI50 [48] 69.8 µg/mL (≈ 144 µM)
54.8 µg/mL: TGI [55]
74.2 µg/mL: TGI [12]
69.5 µg/mL: TGI [30]
46.4 µg/mL: TGI [23]
12.2 µg/mL: TGI [35]
50.4 µg/mL: TGI [4]
43.7 µg/mL: TGI [3]
38.2 µg/mL: TGI [16]

COC(=O)[C@H](NC(=O)OC(C)(C)C)[C@H]1COC(C)(C)O1
> 100 µM: TGI [1] | TGI [2] | TGI [4] | TGI [5] | TGI [6] | TGI [7] | TGI [51] | TGI [8] | TGI [9] | TGI [10] | TGI [52] | TGI [11] | TGI [12] | TGI [13] | TGI [56] | TGI [14] | TGI [15] | TGI [57] | TGI [16] | TGI [17] | TGI [18] | TGI [19] | TGI [20] | TGI [21] | TGI [22] | TGI [23] | TGI [24] | TGI [27] | TGI [28] | TGI [54] | TGI [29] | TGI [30] | TGI [31] | TGI [32] | TGI [33] | TGI [34] | TGI [35] | TGI [36] | TGI [37] | TGI [38] | TGI [39] | TGI [40] | TGI [41] | TGI [42] | TGI [43] | TGI [55] | TGI [45] | TGI [58] | TGI [46] | TGI [47] | TGI [48] | TGI [49] | TGI [50]
